Results on 32 compounds are retold here after patent US20020016341A1, “Heterocyclic thioester and ketone hair growth compositions and uses” (priority 1998, published 2002).

Where two headings read alike, the source gives them in different places.

For test [1], the target named is FKBP12 (Homo sapiens, UniProt P62942). Nature of the test: Ki test: inhibition of peptidyl-prolyl isomerase (rotamase) activity, chymotrypsin-coupled assay. The test is classed as biochemical. From the text: The inhibition of the prolyl peptidyl cis-trans isomerase activity of FKBP may be measured as an indicator of this affinity.
FKBP12, sequence (P62942 whole entry, species assumed): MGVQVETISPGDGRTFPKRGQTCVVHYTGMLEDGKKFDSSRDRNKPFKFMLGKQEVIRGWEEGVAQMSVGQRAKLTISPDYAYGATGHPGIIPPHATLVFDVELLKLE
Inhibition of the peptidyl-prolyl isomerase (rotamase) activity of the compounds used in the inventive methods and pharmaceutical compositions can be evaluated by known methods described in the literature (Harding et al., Nature, 1989, 341:758-760; Holt et al. J. Am. Chem. Soc., 115:9923-9938).
The cis-trans isomerization of an alanine-proline bond in a model substrate, N-succinyl-Ala-Ala-Pro-Phe-p-nitroanilide, is monitored spectrophotometrically in a chymotrypsin-coupled assay, which releases paranitroanilide from the trans form of the substrate. The inhibition of this reaction caused by the addition of different concentrations of inhibitor is determined, and the data is analyzed as a change in first-order rate constant as a function of inhibitor concentration to yield the apparent K1 values.
In a plastic cuvette are added […] of ice cold assay buffer (25 mM HEPES, pH 7.8, 100 mM NaCl), 10 mL of FKBP (2.5 mM in 10 mM Tris-Cl pH 7.5, 100 mM NaCl, 1 mM dithiothreitol), 25 mL of chymotrypsin (50 mg/ml in 1 mM HCl) and […] of test compound at various concentrations in dimethyl sulfoxide. The reaction is initiated by the addition of 5 mL of substrate (succinyl-Ala-Phe-Pro-Phe-para-nitroanilide, 5 mg/mL in 2.35 mM LiCl in trifluoroethanol).
The absorbance at 390 nm versus time is monitored for 90 seconds using a spectrophotometer and the rate constants are determined from the absorbance versus time data files.

The test system of test [2] is C57 black 6 mice. In words: In vivo hair generation test, Experiment A. As to conditions: 30 μM topical, 3 applications over 5 days, after six weeks. From the text:
Care was taken not to nick or cause abrasion to the underlaying dermal layers. The animals were in anagen growth phase, as indicated by the pinkish color of the skin. […] Hair growth was quantitated by the percent of shaved area covered by new hair growth during this time period.

Test [3] relates to C57 black 6 mice. In words: In vivo hair generation test, Experiment B. As to conditions: one micromole per milliliter topical, three times per week, 14 days after initiation of treatment. As for the experimental part: Care was taken not to nick or cause abrasion to the underlying dermal layers. The animals were in anagen growth phase when shaved. […] The animals were treated three times per week, and hair growth was evaluated 14 days after initiation of treatment.

[4] abbreviates: apparent Ki, rotamase inhibition, read-out: Ki.

Take “1,5-Diphenyl-3-pentyl 1-(3,3-dimethyl-1,2-dioxopentyl)-2-piperidinecarbothioate [Compound 40]”: in test [1] (setting [4]), the Ki was found to be 1230 nM. “2,2-Diphenylethyl (2S)-1-(3,3-dimethyl-2-oxopentanoyl)-2-piperidinecarbothioate [Compound 49]”: the Ki in test [1] (setting [4]) stood at 1330 nM. The same measure, in the same setting: to “2-Phenyl-1-ethyl 1-(2-phenyl-1,2-dioxoethyl)-2-piperidinecarbothioate [Compound 14]” belongs 313 nM. Still for that read-out and setting: to “2-Phenyl-1-ethyl 1-(3,3-dimethyl-1,2-dioxopentyl)-2-piperidinecarbothioate [Compound 10]” belongs 12 nM; to “2-Phenyl-1-ethyl (2S)-1-(1-cyclopentyl-1,2-dioxoethyl)-2-pyrrolidinecarbothioate [Compound 28]”, 108 nM; to “2-Phenyl-1-ethyl (2S)-1-(2-cyclohexyl-1,2-dioxoethyl)-2-pyrrolidinecarbothioate [Compound 12]”, 442 nM.

Turning to “3-(1-Naphthyl)-1-propyl 1-(3,3-dimethyl-1,2-dioxopentyl)piperidine-2-carbothioate [Compound 44]”, the Ki in test [1] (setting [4]) is 188 nM. Same read-out and setting: to “3-(1-Naphthyl)propyl (2S)-1-(3,3-dimethyl-2-oxopentanoyl)-2-pyrrolidinecarbothioate [Compound 47]” belongs 21 nM; to “3-(2-Chlorophenyl)propyl (2S)-1-(3,3-dimethyl-2-oxopentanoyl)-2-pyrrolidinecarbothioate [Compound 61]”, 139 nM; to “3-(2-Fluorophenyl)propyl (2S)-1-(3,3-dimethyl-2-oxopentanoyl)-2-pyrrolidinecarbothioate [Compound 57]”, 57 nM. On the same count and under the same terms, the value for “3-(3-Chlorophenyl)propyl (2S)-1-(3,3-dimethyl-2-oxopentanoyl)-2-pyrrolidinecarbothioate [Compound 54]” was 37 nM; that for “3-(3-Fluorophenyl)propyl 1-(3,3-dimethyl-2-oxopentanoyl)-2-piperidinecarbothioate [Compound 64]” was 163 nM. Regarding “3-(3-Fluorophenyl)propyl (2S)-1-(3,3-dimethyl-2-oxopentanoyl)-2-pyrrolidinecarbothioate [Compound 58]”, the Ki in test [1] (setting [4]) is 79 nM.

In the case of “3-(3-Pyridyl)-1-propyl (2S)-1-(2-cyclohexyl-1,2-dioxoethyl)-2-pyrrolidinecarbothioate [Compound 35]”, in test [1] (setting [4]), the Ki was determined as 62 nM. Same read-out and setting: the value for “3-(para-Methoxyphenyl)-1-propyl 1-(2-phenyl-1,2-dioxoethyl)piperidine-2-carbothioate [Compound 43]” was 259 nM. Still for that read-out and setting: the value for “3-Phenyl-1-propyl 1-(3,3-dimethyl-1,2-dioxobutyl)-2-piperidinecarbothioate [Compound 29]” was 59 nM; that for “3-Phenyl-1-propyl (2S)-1-(2-cyclohexyl-1,2-dioxoethyl)-2-pyrrolidinecarbothioate [Compound 32]” was 362 nM; that for “3-Phenylpropyl 1-(3,3-dimethyl-2-oxopentanoyl)-2-piperidinecarbothioate [Compound 60]” was 90 nM. As to “4,4-Di(para-fluorophenyl)butyl 1-(3,3-dimethyl-2-oxopentanoyl)-2-pyrrolidinecarbothioate [Compound 46]”, the Ki in test [1] (setting [4]) was 757 nM. Consider “4-Phenyl-1-butyl 1-(1,2-dioxo-3,3-dimethylbutyl)-2-piperidinecarbothioate [Compound 39]”, for which the Ki in test [1] (setting [4]) worked out at 347 nM. Still for that read-out and setting: the value for “4-Phenyl-1-butyl (2S)-1-(2-cyclohexyl-1,2-dioxoethyl)-2-pyrrolidinecarbothioate [Compound 33]” was 1700 nM; that for “4-Phenyl-1-butyl (2S)-1-(3,3-dimethyl-1,2-dioxopentyl)-2-pyrrolidinecarbothioate [Compound 34]” was 34 nM; that for “4-Phenylbutyl 1-(3,3-dimethyl-2-oxopentanoyl)-2-piperidinecarbothioate [Compound 59]” was 962 nM. For the compound `CCC(C)(C)C(=O)C(=O)N1CCC[C@H]1C(=O)CCCCc1ccccc1` [Compound 1], the Ki in test [1] (setting [4]) was determined as 31 nM. Still for that read-out and setting: to `CCC(C)(C)C(=O)C(=O)N1CCC[C@H]1C(=O)SCc1csc2ccccc12` [Compound 11, (3-Thioindolyl)methyl (2S)-1-(3,3-dimethyl-1,2-dioxopentyl)-2-pyrrolidinecarbothioate] belongs 299 nM.

As to `CCC(C)(C)C(=O)C(=O)N1CCC[C@H]1C(=O)SCCC(c1ccc(F)cc1)c1ccc(F)cc1` [Compound 45, 3,3-Di(para-fluoro)phenyl-1-propyl (2S)-1-(3,3-dimethyl-1,2-dioxopentyl)-2-pyrrolidinecarbothioate], the Ki in test [1] (setting [4]) worked out at 31 nM. The same measure, in the same setting: to `CCC(C)(C)C(=O)C(=O)N1CCCCC1C(=O)SCCCc1ccc2ccccc2c1` [Compound 53, 3-(2-Naphthyl)propyl (2R,S)-1-(3,3-dimethyl-2-oxopentanoyl)-2-piperidinecarbothioate] belongs 261 nM. `O=C(C(=O)N1CCCCC1C(=O)CCCCCc1ccccc1)C1CCCCC1` (centres unmarked) [Compound 68] registered a Ki in test [1] of 284 nM. Same read-out and setting: to `CC(C)(C)C(=O)C(=O)N1CCCCC1C(=O)C(CCc1ccccc1)CCc1ccccc1` (centres unmarked) [Compound 69] belongs 49 nM. `CCC(C)(C)C(=O)C(=O)N1CCC[C@H]1C(=O)CCCC(c1ccc(F)cc1)c1ccc(F)cc1` [Compound 70, 1-{(2S)-2-[5,5-di(4-Fluorophenyl)pentanoyl]-2-pyrrolidine}-3,3-dimethyl-1,2-pentanedione]: the Ki in test [1] (setting [4]) was determined as 457 nM. Turning to `CCC(C)(C)C(=O)C(=O)N1CCC[C@H]1C(=O)OCCCc1cccnc1` [GPI 1046, 3-(3-pyridyl)-1-propyl (2s)-1-(3,3-dimethyl-1,2-dioxopentyl)-2-pyrrolidinecarboxylate], the “hair regrowth in shaved area” value in test [2] is “essentially complete hair regrowth”.

In the case of `CCC(C)(C)C(=O)C(=O)N1CCC[C@H]1C(=O)SCCC(c1ccccc1)c1ccccc1` [GPI 1234], the “hair growth (relative hair growth index, FIG. 5)” value in test [3] is “dramatic hair growth”.
